{"source": "patent US20180042223A1", "about": "“COMPOSITION COMPRISING A HYDROGEL AND PESTICIDES” (priority 2014, published 2018)", "system": "spider mite (Tetranychus uricae)", "experiment": "Effectiveness of pesticide with NovioHelix hydrogel adjuvant: dead percentage of spider mites on paprika plants", "format": "in vivo", "conditions": "day 5 after treatment; infected paprika plants; applied till run off; Noviohelix 3 mg/mL where used", "protocol": "Paprika plants infected with spider mite (Tetranychus uricae) were used as experiment samples. All paprika (±20cm) were artificially infected with spiders 5 days before the experiments. The insecticide Spiromesifen (Spiromesifen, 240 g/l, Oberon) was used to against spiders. Noviohelix (3 mg/mL) was used as an adjuvant. All samples were applied with pesticide until ‘till run off’ (the first droplet of a composition fall off the leave). The effectiveness of Spiromesifen either with or without NovioHelix was determined based on the dead percentage of spiders after treatment. The spiders both in mature and immature phases were counted before and at day 5 after experiment."}
{"smiles": "Cc1cc(C)c(C2=C(OC(=O)CC(C)(C)C)C3(CCCC3)OC2=O)c(C)c1", "note": "[Spiromesifen]", "values": [{"measurement": "% dead (dead percentage of spider)", "value": 84.8, "unit": "%"}]}
